# Results from a melting point compilation (Tetko et al.; mined from patent text by program, amines drawn as free bases though some values may be those of a salt).
row,Structure (SMILES),melting point [°C]
1,COc1ccc(-c2nn3c(S(C)=O)nnc3c3ccccc23)cc1 (centres undefined),201
2,O=C(NC(=O)c1c(F)cccc1Cl)Nc1ccc(S(=O)(=O)C(F)(F)C(F)F)cc1F,176 to 177
3,COc1ccc(CC(C)NC(=O)C(F)(F)F)cc1 (centres undefined),100 to 102
4,CCNC(=O)Nc1ccc(C(O)(C(F)(F)F)C(F)(F)F)cc1[N+](=O)[O-],169 to 171
5,Cc1nc2cc(C34CC5CC(CC(C5)C3)C4)cc(-c3ccc(C=C4SC(=S)NC4=O)cc3)c2o1,> 360
6,Cc1cn([C@@H]2C[C@H](O)[C@@H](O)[C@H]2O)c(=O)[nH]c1=O (racemic),201 to 202
7,O=C(O)CNC(=O)c1cccc2c(-c3ccccc3)c([N+](=O)[O-])oc12,123 to 126
8,CCCCCCCCCCCCCCC(F)(F)P(=O)(O)O,66 to 69
9,O=[N+]([O-])c1cccnc1Nc1ccccc1,66 to 68
10,Cn1cc(C(F)(F)F)c(C(=O)O)n1,174 to 175
11,Cc1oc(-c2ccccc2)nc1CCOc1ccc(CC(C(N)=O)C(=O)O)cc1 (centres undefined),138
12,COc1ccc(C(=O)Cc2c(Cl)cncc2Cl)c2c1CC1(CCCC1)O2,70 to 72
13,COC(=O)c1ccccc1S(=O)(=O)NC(=O)Nc1nc(C)cc(CF)n1,181 to 186
14,Cc1ccc(-n2nc(C(F)F)cc2-c2ccc(S(C)(=O)=O)cc2)cc1F,161 to 162
15,Cc1nccn1CC(COc1cccc(Cl)c1)Sc1c(Cl)cccc1Cl (centres undefined),162 to 163
16,O=C1c2ccccc2C(=O)N1CCCN1CCC(=C(c2ccccc2)c2ccccc2)CC1,108 to 110
17,CCOP(=O)(Cc1cc2c(cc1CP(=O)(OCC)OCC)C(CC)(CC)N(Cc1ccccc1)C2(CC)CC)OCC,81 to 83
18,CC(NC(=O)OC(C)(C)C)C(=O)NC1CCN(Cc2ccccc2)C1 (centres undefined),83 to 85
19,NS(=O)(=O)c1cc2cc(C(=O)NCC(O)CO)sc2s1 (centres undefined),117 to 118
20,CC(C)(C)OC(=O)N1CCc2c(n(CCOc3ccccc3)c3c(Cl)c(Cl)ccc23)CC1,138 to 140
21,NCC(COC(C(F)(F)F)(C(F)(F)F)C(F)(F)F)(COC(C(F)(F)F)(C(F)(F)F)C(F)(F)F)C(=O)O,182 to 184
22,S=C(NN=Cc1cccc(-c2ccccc2Br)n1)NN1CCCC1,157 to 159
23,N=C(N)c1ccc(-c2ccc(N3CCN(CCC(=O)O)C3=O)cc2)cc1,> 200
24,CCOC(=O)Cc1c(C(=O)OCC)c(C)c(C(=O)c2ccc(Cl)cc2)n1C,91 to 93
25,CC(=O)Nc1cc2c(cc1[N+](=O)[O-])OC(C)(C)[C@@H](O)[C@@H]2NC(=O)CCCCl (relative stereo),178 to 180

row,Structure (SMILES),melting point [°C]
1,Cc1ccccc1Cc1cccc(-c2ncc3c(n2)CCOC3)n1,132 to 133
2,CN(CCOc1ccc(CC(C(=O)O)S(=O)(=O)c2ccccc2)cc1)c1nc2ccccc2o1 (centres undefined),193 to 196
3,COC(=O)c1ccc(-c2ccc(Cl)s2)nc1,122 to 124
4,Cc1ccc(C=C(C#N)c2ccccc2)cc1,61
5,O=C(O)COC(=O)C=Cc1ccccc1,116 to 121
6,Cc1nc(N)c2nc3n(c2c1C)C(C)COC3 (centres undefined),264 to 267
7,Cn1ccc2cc(NC(=O)/C=C/c3ccc(C(C)(C)C)cc3)ccc21,171
8,CC(CCCC(C)(C)O)C1CCC2C3CC=C4CC(O)CCC4(C)C3CCC12C (centres undefined),168 to 175
9,COc1c(Cl)ccc(-c2cc(N)c(Cl)c(C(=O)NO)n2)c1F,166 to 169
10,CCOC(=O)c1cccc(C(=O)c2cccnc2-c2ccc(S(C)(=O)=O)cc2)c1,125 to 132
11,Cc1nn(-c2cc3nc(S)sc3cc2Cl)c(=O)n1C(F)F,201 to 203
12,O=c1[nH]c2ccc(C3=NOC(CN4CCC(c5ccc(F)cc5)CC4)C3)cc2o1 (centres undefined),214 to 217
13,"CCC1(CC(=O)O)OCC(Cc2ccccc2)c2c1[nH]c1ccccc21 (single isomer, unassigned; (-))",142 to 143
14,COc1cc2cc3c(Cl)c(C#N)cnc3cc2cc1O,> 300
15,COc1ccc(CC2N(C)CCC(OC)(OC)C2(C)C)cc1 (centres undefined),91 to 92.5
16,CC(C)N(Cc1nc(-c2ncn3c2CN(C)C(=O)c2c(Cl)cccc2-3)no1)C(C)C,58 to 63
17,O=C(O)COc1c(-c2cccc(Cl)c2)cc(C(=O)NCCCCCCCCc2ccccc2)cc1-c1cccc(Cl)c1,165 to 167
18,CCC(CC)Nc1cc(C)nc(Oc2c(C)cc(Cl)cc2C)c1[N+](=O)[O-],152 to 154
19,CCN1CCc2cc(OC)c(OC)cc2C1C1CC(C(=O)N2CCN(c3ccccn3)CC2)CCC12c1cc(OC)c(OC)cc1CCN2CC (centres undefined),115 to 117
20,COC(=O)C=Cc1ccc(OCc2nc(-c3ccccc3)oc2C)c(C(F)(F)F)c1,148 to 149
21,Cn1c(Nc2c(Cl)ccc(CNC(=O)C(C)(C)C)c2Cl)nc2cc(C(=O)N[C@H]3CC[C@H](C(F)(F)F)CC3)c(N3CCC(C(F)(F)F)CC3)nc21,185 to 186
22,COC(=O)C(C)(C)Oc1ccc(C(=O)CN2CCN(c3ccncc3)CC2)cc1,88 to 90
23,COc1ccc2c(c1)CC(n1cc[nH]c1=S)CC2 (centres undefined),271 to 273
24,CCOP(=O)(COc1ccc(CO)cc1N)OCC,181 to 184
